US11384067B2, “Pyrazole n-linked carbamoyl cyclohexyl acids as LPA antagonists” (BRISTOL-MYERS SQUIBB COMPANY, priority 2017, dated 2022)
pIC50: −log10 of the molar value.

Key:
[1] = system: IPF patients; settings: 26-week clinical trial; cited from earlier work
[2] = target: T1, human LPA1 (Homo sapiens, UniProt Q92633); assay: LPA1 functional antagonist assay (LPA-induced calcium flux); type: cell-based; settings: CHO cells overexpressing human LPA1, 10 nM LPA, read-out: hLPA1 IC50
T1 construct: expressed in transfected cells; host or cells: Chinese hamster ovary (CHO) cells
Method: The effectiveness of compounds of the present invention as LPA1 inhibitors can be determined in an LPA1 functional antagonist assay as follows:
The cells were then equilibrated to room temperature for 30 minutes before the assay. […] IC50 values were determined by fitting data to a 4-parameter logistic equation (GraphPad Prism, San Diego Calif.).

[3] = system: nerve-injured mice; settings: pretreatment; cited from earlier work
[4] = system: human foetal lung fibroblasts; settings: cited from earlier work
[5] = system: UUO mice; settings: compared with LPA1 (-/-) mice; cited from earlier work
[6] = system: mouse epithelial renal cell line, MCT; settings: co-treatment with LPA, MCT cells; cited from earlier work
[7] = system: pancreatic cancer cell lines; settings: cited from earlier work

T1 sequence (Q92633 whole entry): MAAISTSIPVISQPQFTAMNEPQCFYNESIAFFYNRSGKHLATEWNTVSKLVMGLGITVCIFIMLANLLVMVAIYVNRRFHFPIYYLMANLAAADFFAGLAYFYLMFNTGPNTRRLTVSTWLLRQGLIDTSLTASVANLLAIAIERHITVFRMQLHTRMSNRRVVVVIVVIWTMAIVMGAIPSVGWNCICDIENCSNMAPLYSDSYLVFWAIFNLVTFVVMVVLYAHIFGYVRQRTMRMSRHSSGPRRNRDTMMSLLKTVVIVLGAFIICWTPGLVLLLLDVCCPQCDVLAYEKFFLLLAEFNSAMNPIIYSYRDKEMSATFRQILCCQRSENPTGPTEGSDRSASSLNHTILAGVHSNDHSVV

Row | SMILES | pIC50 [2] | other results
1 | Cc1noc(-c2ccc(-c3ccc(C4(C(=O)O)CC4)cc3)cc2)c1NC(=O)O[C@H](C)c1ccccc1 [BMS-986020] | – | rate of FVC (forced vital capacity) decline [1]: significantly reduce
2 | Cc1nc(-c2cnn(C)c2CNC(=O)OCc2ccccc2)ccc1O[C@H]1CCC[C@H](C(=O)O)C1 [Example 33, (1S,3S)-3-((6-(5-((((benzyloxy)carbonyl)amino)methyl)-1-methyl-1H-pyrazol-4-yl)-2-methylpyridin-3-yl)oxy)cyclohexane-1-carboxylic acid] | 7.89 | –
3 | CC[C@H](C)COC(=O)NCc1c(-c2ccc(O[C@H]3CCC[C@H](C(=O)O)C3)c(C)n2)cnn1C [Example 34, (1S,3S)-3-((2-methyl-6-(1-methyl-5-(((((S)-2-methylbutoxy)carbonyl)amino)methyl)-1H-pyrazol-4-yl)pyridin-3-yl)oxy)cyclohexane-1-carboxylic acid] | 7.70 | –
4 | Cc1nc(-c2cnn(C)c2CNC(=O)OCC2CCC2)ccc1O[C@H]1CCC[C@H](C(=O)O)C1 [Example 35, (1S,3S)-3-((6-(5-((((cyclobutyl-methoxy)carbonyl)amino)methyl)-1-methyl-1H-pyrazol-4-yl)-2-methyl-pyridin-3-yl)oxy)cyclohexane-carboxylic acid] | 8.00 | –
5 | CC[C@H](C)COC(=O)NCc1c(-c2ncc(O[C@H]3CCC[C@H](C(=O)O)C3)c(C)n2)cnn1C [Example 36, (1S,3S)-3-((4-methyl-2-(I-methyl-5-(((((S)-2-methylbutoxy)carbonyl)amino)methyl)-1H-pyrazol-4-yl)pyrimidin-5-yl)oxy)cyclohexane-1-carboxylic Acid] | 7.51 | –
6 | Cc1nc(-c2cnn(C)c2CNC(=O)OCc2ccccc2)ncc1O[C@H]1CCC[C@H](C(=O)O)C1 [Example 37, (1S,3S)-3-((2-(5-((((benzyloxy)carbonyl)amino)methyl)-1-methyl-1H-pyrazol-4-yl)-4-methylpyrimidin-5-yl)oxy)cyclohexane-1-carboxylic Acid] | 7.80 | –
7 | Cc1nc(-c2cnn(C)c2CNC(=O)OCC(C)C)ncc1O[C@H]1CCC[C@H](C(=O)O)C1 [Example 38, (1S,3S)-3-((2-(5-(((isobutoxy-carbonyl)amino)methyl)-1-methyl-1H-pyrazol-4-yl)-4-methylpyrimidin-5-yl)oxy)cyclohexane-1-carboxylic acid] | 6.66 | –
8 | Cc1nc(-c2cnn(C)c2NC(=O)OC(C)(C)C)ncc1O[C@H]1CCC[C@H](C(=O)O)C1 [Example 39, (1S,3S)-3-((2-(5-((tert-butoxycarbonyl)amino)-1-methyl-1H-pyrazol-4-yl)-4-methylpyrimidin-5-yl)oxy)cyclohexane-1-carboxylic Acid] | 5.82 | –
9 | Cc1nc(-c2cnn(C)c2NC(=O)O[C@H](C)c2ccccc2)ncc1O[C@H]1CCC[C@H](C(=O)O)C1 [Example 40, (1S,3S)-3-((4-methyl-2-(1-methyl-5-((((R)-1-phenylethoxy)carbonyl)amino)-1H-pyrazol-4-yl)pyrimidin-5-yl)oxy)cyclohexane-1-carboxylic acid] | 6.98 | –
10 | Cc1nc(-c2cnn(C)c2NC(=O)O[C@H](C)C2CC2)ncc1O[C@H]1CCC[C@H](C(=O)O)C1 [Example 41, (1S,3S)-3-((2-(5-((((R)-1-cyclopropyl-ethoxy)carbonyl)amino)-1-methyl-1H-pyrazol-4-yl)-4-methylpyrimidin-5-yl)oxy)cyclohexane-1-carboxylic acid] | 7.10 | –
11 | CCCCOC(=O)Nc1c(-c2ncc(O[C@H]3CCC[C@H](C(=O)O)C3)c(C)n2)cnn1C [Example 42, (1S,3S)-3-((2-(5-((butoxycarbonyl)amino)-1-methyl-1H-pyrazol-4-yl)-4-methylpyrimidin-5-yl)oxy)cyclohexane-1-carboxylic acid] | 6.62 | –
12 | Cc1nc(-c2cnn(C)c2NC(=O)OCC(C)C)ncc1O[C@H]1CCC[C@H](C(=O)O)C1 [Example 43] | 6.25 | –
13 | Cc1nc(-c2cnn(C)c2NC(=O)OCC2CC2)ncc1O[C@H]1CCC[C@H](C(=O)O)C1 [Example 44, (1S,3S)-3-((2-(5-(((cyclopropyl-methoxy)carbonyl)amino)-1-methyl-1H-pyrazol-4-yl)-4-methylpyrimidin-5-yl)oxy)cyclohexane-1-carboxylic acid] | 6.00 | –
14 | C[C@@H](N)[C@H]1CC[C@H](C(=O)Nc2ccncc2)CC1 [Example Y-27632] | – | allodynia and hyperalgesia [3]: completely abolished
15 | Cc1noc(-c2ccc(CSCCC(=O)O)cc2)c1NC(=O)OC(C)c1ccccc1Cl (centres unmarked) [Ki16425] | – | chemotaxis of human foetal lung fibroblasts induced by BAL from IPF patients [4]: blocked; fibroblast chemotactic activity in bronchoalveolar lavage samples of IPF subjects [4]: inhibited; development of renal fibrosis in UUO mice [5]: closely resembled the profile of LPA1 (−/−) mice; LPA induction of CTGF expression [6]: almost completely suppressed; in vitro migration in response to LPA and ascites from pancreatic cancer patients [7]: effectively blocked; LPA-induced and ascites-induced invasion activity ([7]; highly peritoneal metastatic pancreatic cancer cell line): blocked
